Patent US7196061B2, “Compounds that modulate neuronal growth and their uses” (priority 2003, dated 2007)
Values joined by “and” are separate entries in the source; they are usually repeats but may differ in a detail not shown here. Equal entries are not always repeated. “Also recorded” adds a separate entry of the source. Positions of bridges follow the written chain, without caps; N, C: chain ends. Residues, ends and D or L forms follow the SMILES beside them.

What was measured:
[1] = test system: cerebellar neurons; type: cell-based, rat; details: K252a 100 nM, KT5720 200 nM, H-89 400 nM, Wortmannin and LY294002 10 μM; for effect on the neurite outgrowth response to BAG: BAG 6 μM; for effect on the neurite outgrowth response to BDNF: BDNF 5 ng/ml; for effect on the neurite outgrowth response to FGF2: FGF2 5 ng/ml
Procedure: To test the effects of various agents, the experiments were done as indicated in the figure using control media containing no additional supplements, or using media additionally supplement with K252a (100 nM final concentration), a PKA inhibitor (KT5720 at 200 nM final concentration or H-89 at 400 nM final concentration), or a PI3K inhibitor (Wortmannin or Ly294002, each at a final concentration of 10 μM). […] Each column in the figure indicates pooled results from at least three independent experiments, and the bars on each column indicate the SEM.
Reagents and culture treatment. Unless otherwise noted here, reagents in the experiments set forth in this Section were obtained and as set forth supra, in Section 7.1.3 et seq. In particular, recombinant human FGF2 and BDNF were obtained from R&D systems (Minneapolis, Minn.) and used at final concentrations of 5 ng/ml. The Trk receptor […] K252a was obtained from Calbiochem (San Diego, Calif.) and used at a final concentration of 100 nM. The Trk agonist peptide BAG (SEQ ID NO:18) was obtained from a commercial supplier (Multiple Peptide Systems, San Diego Calif.). […] A p75 NTR rabbit polyclonal antibody was raised against the extracellular domain of that receptor as previously described (see, Huber & Chao, Dev. Biol. 1995, 167:227–238) and used at a 1:200 dilution of serum. The known PKA inhibitors KT5720 and H-89 were obtained from Calbiochem (San Diego, Calif.) and used at final concentrations of 200 and 400 nM, respectively.

[2] = biological target: Trk receptor (Rattus norvegicus, UniProt Q63604); details: maximally active BAG (6 μM); peptides 125 μM, K252a 100 nM
Chain of Trk receptor (Q63604 32-821): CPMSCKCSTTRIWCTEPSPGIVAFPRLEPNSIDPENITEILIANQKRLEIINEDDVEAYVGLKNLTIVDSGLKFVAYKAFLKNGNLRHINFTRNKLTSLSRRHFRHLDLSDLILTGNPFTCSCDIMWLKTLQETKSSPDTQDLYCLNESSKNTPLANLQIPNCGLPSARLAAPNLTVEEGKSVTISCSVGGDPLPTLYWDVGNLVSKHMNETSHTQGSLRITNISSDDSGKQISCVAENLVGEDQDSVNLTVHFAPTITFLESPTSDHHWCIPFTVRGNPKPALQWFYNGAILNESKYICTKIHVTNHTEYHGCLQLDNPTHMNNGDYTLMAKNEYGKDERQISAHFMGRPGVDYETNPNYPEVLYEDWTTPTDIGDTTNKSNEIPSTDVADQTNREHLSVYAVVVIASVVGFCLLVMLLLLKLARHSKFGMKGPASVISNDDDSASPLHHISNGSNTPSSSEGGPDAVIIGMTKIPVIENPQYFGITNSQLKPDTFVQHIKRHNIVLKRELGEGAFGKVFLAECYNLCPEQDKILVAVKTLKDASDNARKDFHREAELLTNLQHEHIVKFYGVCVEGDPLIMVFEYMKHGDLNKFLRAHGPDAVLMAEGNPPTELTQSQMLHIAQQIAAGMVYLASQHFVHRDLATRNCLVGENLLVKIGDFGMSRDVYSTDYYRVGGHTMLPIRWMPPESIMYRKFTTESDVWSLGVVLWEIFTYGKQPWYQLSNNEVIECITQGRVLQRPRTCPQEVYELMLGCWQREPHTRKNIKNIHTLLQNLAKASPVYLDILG

[3] = biological target: T1, TrkB receptor (Rattus norvegicus, UniProt Q63604); assay: Neurite outgrowth assay, inhibition of the BDNF response; type: cell-based
T1 construct: endogenous in cells; host or cells: primary rat cerebellar neurons co-cultured on 3T3 fibroblast monolayers
T1 sequence (Q63604 32-821): as above
Procedure: (§1) After 16 hours, the co-cultures were fixed and mean neurite length determined as has been previously described (Williams et al., J. Biol. Chem. 2000, 275:4007–4012).
(§2) The effect of this peptide on the BDNF and NT-4 response was tested in the above-described neurite outgrowth assay, with both NT ligands used at concentrations of 5 ng/ml.

[4] = biological target: T1, TrkB receptor; assay: Neurite outgrowth assay, inhibition of the NT-4 response; type: cell-based
Procedure: as §1, §2

[5] = test system: cerebellar neurons; assay: Neurite outgrowth assay, cerebellar neurons over 3T3 monolayers (stimulation / basal outgrowth); type: cell-based, rat; details: for effect on basal neurite outgrowth: absence of any natural NT ligand, N-Ac-CRGEC-NH2 at concentrations greater than about 400 μM
Procedure: as §1

[6] = test system: MAG inhibitory activity; assay: Neurite outgrowth over N-cadherin expressing 3T3 (LK8) cells with soluble MAG-Fc; type: cell-based, rat; details: for effect on MAG-Fc inhibition of neurite outgrowth: MAG-Fc up to 25 μg/ml, Y27632 10 μM, BAG 6 μM, BDNF 5 ng/ml
Procedure: Reagents and culture treatment. […] In particular, recombinant human FGF2 and BDNF were obtained from R&D systems (Minneapolis, Minn.) and used at final concentrations of 5 ng/ml. The Trk receptor agonist K252a was obtained from Calbiochem (San Diego, Calif.) and used at a final concentration of 100 nM. The Trk agonist peptide BAG (SEQ ID NO:18) was obtained from a commercial supplier (Multiple Peptide Systems, San Diego Calif.). […] Monoclonal antibody to GT1b (clone GMR5) was obtained from Seikagaku America (Falmouth, Mass.) and used at a final concentration of 20 μg/ml. A p75 NTR rabbit polyclonal antibody was raised against the extracellular domain of that receptor as previously described (see, Huber & Chao, Dev. Biol. 1995, 167:227–238) and used at a 1:200 dilution of serum. The known PKA inhibitors KT5720 and H-89 were obtained from Calbiochem (San Diego, Calif.) and used at final concentrations of 200 and 400 nM, respectively. The known PI3K inhibitors Wortmnannin and LY294002 were also obtained from Calbiochem (San Diego, Calif.) and were both used at final concentrations of 10 μM. The Rho kinase inhibitor Y27632 was obtained from Tocris (Bristol, UK) and used at 10 μM final concentration.
All reagents were diluted into the co-culture media and in general added to the cultures just prior to plating of the neurons. The exception was antiserum raised against the p75^NTR receptor. Instead, a high density neuronal suspension was treated with a 1:200 dilution of the serum for 60 minutes. The neurons were then diluted by a factor of about 20, and seeded out for culture.

[7] = test system: GT1b; assay: Neurite outgrowth over N-cadherin expressing 3T3 cells with monoclonal antibody for GT1b; type: cell-based, rat; details: antibody 20 μg/ml; Y27632 10 μM, BAG 6 μM
Procedure: Cultures were maintained for 22 hours before fixing and staining for GAP-43. […] Each column in the figure indicates pooled results from between 7 and 10 independent experiments, and the bars on each column indicate the SEM.
Reagents and culture treatment. […] In particular, recombinant human FGF2 and BDNF were obtained from R&D systems (Minneapolis, Minn.) and used at final concentrations of 5 ng/ml. The Trk receptor agonist K252a was obtained from Calbiochem (San Diego, Calif.) and used at a final concentration of 100 nM. The Trk agonist peptide BAG (SEQ ID NO:18) was obtained from a commercial supplier (Multiple Peptide Systems, San Diego Calif.). […] A p75 NTR rabbit polyclonal antibody was raised against the extracellular domain of that receptor as previously described (see, Huber & Chao, Dev. Biol. 1995, 167:227–238) and used at a 1:200 dilution of serum. The known PKA inhibitors KT5720 and H-89 were obtained from Calbiochem (San Diego, Calif.) and used at final concentrations of 200 and 400 nM, respectively.

[8] = test system: p75^NTR receptor; assay: Neurite outgrowth over N-cadherin expressing 3T3 cells after treatment with antibody to p75NTR; type: cell-based, rat; details: Y27632 10 μM, BAG 6 μM, BDNF 5 ng/ml added after antibody treatment
Procedure: These antibody treated neurons were cultured after treatment in either: (1) control media without supplements; (2) the Rho kinase inhibitor Y27632 (10 μM final concentration); (3) BAG polypeptide (6 μM final concentration); or (4) BDNF neurotrophin (5 ng/ml final concentration). […] Each column in the figure indicates pooled results from the number of independent experiments indicated above it, and the bars on each column indicate the SEM.
Reagents and culture treatment. Unless otherwise noted here, reagents in the experiments set forth in this Section were obtained and as set forth supra, in Section 7.1.3 et seq. In particular, recombinant human FGF2 and BDNF were obtained from R&D systems (Minneapolis, Minn.) and used at final concentrations of 5 ng/ml. The Trk receptor […] K252a was obtained from Calbiochem (San Diego, Calif.) and used at a final concentration of 100 nM. The Trk agonist peptide BAG (SEQ ID NO:18) was obtained from a commercial supplier (Multiple Peptide Systems, San Diego Calif.). Recombinant MAG-Fc chimera was obtained from R&D Systems (Minneapolis, Minn.) and used at a final concentration of 5–25 μg/ml. Monoclonal antibody to GT1b (clone GMR5) was obtained from Seikagaku America (Falmouth, Mass.) and used at a final concentration of 20 μg/ml. […]

[9] = test system: MAG inhibitory activity; assay: Neurite outgrowth over 3T3 cells that do not express N-cadherin with soluble MAG-Fc; type: cell-based, rat; details: 3T3 without N-cadherin, BAG 6 μM
[10] = test system: MAG inhibitory activity; assay: Substrate based neurite outgrowth assay in inhibitory environment (MAG-Fc coated wells); type: cell-based, rat; details: for neurite growth in the inhibitory environment (overall / dose response) / neurite growth in the inhibitory environment at 33 μg/ml: 27 hours; for neurite growth in the inhibitory environment at 33 μg/ml: peptide 33 μg/ml
Procedure: First, slides are coated with polylysine at 17 μg/ml in distilled water (“dH2O) for thirty (30) minutes at room temperature. After aspirating the wells, a mixture of anti-human IgG and/or fibronectin (both at 10 μg/ml in DMEM) is added to wells to be coated with those compounds, and incubated for 120 minutes. […] PND2/3 rat cerebellar neurons are then added at 15K to each well in DMEM, 10% FCS, 25 mM KCl and 5 ng/ml FGF2, bringing the final media volume to 300 μl in each well. The cerebellar neurons are cultured for 27 hours before fixing and staining for GAP-43.

[11] = test system: cerebellar neurons; details: FGF2 5 ng/ml, WIN55,2122-2 0.2 μM; linear peptide up to 125 μM
Procedure: The peptides were also tested for their ability to inhibit the neurite outgrowth response stimulated by other agents, including N-cadherin, FGF2 or a CB1 receptor agonist.

O=S(=O)(NCCNC/C=C/c1ccc(Br)cc1)c1cccc2cnccc12 [H-89]
effect on the neurite outgrowth response to BAG [1]: essentially abolished
effect on the neurite outgrowth response to BDNF [1]: essentially abolished
effect on the neurite outgrowth response to FGF2 [1]: unaffected

COC(=O)[C@@]1(O)C[C@H]2O[C@]1(C)n1c3ccccc3c3c4c(c5c6ccccc6n2c5c31)C(=O)NC4 [K252a]
effect on the neurite outgrowth response to BAG [1]: essentially abolished
effect on the neurite outgrowth response to BDNF [1]: essentially abolished
effect on the neurite outgrowth response to FGF2 [1]: unaffected
inhibition of the neurite outgrowth response to the BAG peptide [2]: fully inhibited the response

CCCCCCOC(=O)[C@]1(O)C[C@@H]2O[C@@]1(C)n1c3ccccc3c3c4c(c5c6ccccc6n2c5c31)C(=O)NC4 [KT5720]
effect on the neurite outgrowth response to BAG [1]: essentially abolished
effect on the neurite outgrowth response to BDNF [1]: essentially abolished
effect on the neurite outgrowth response to FGF2 [1]: unaffected

CC(=O)N[C@H]1CSSC[C@@H](C(N)=O)NC(=O)[C@H](CCC(=O)O)NC(=O)CNC(=O)[C@H](CCCNC(=N)N)NC(=O)[C@H](CCCNC(=N)N)NC(=O)[C@H](CO)NC1=O [N-Ac-CSRRGEC-NH2] (Ac-CSRRGEC-NH2; disulfide 1-7)
TrkB antagonist potency compared with NT-3 and NGF equivalent peptides [3]: more potent TrkB antagonist
IC50 ([3]; 50% inhibition of the BDNF response, BDNF 5 ng/ml): 27 µM and ~25 µM
fold better than the NGF and NT-3 derived peptides at inhibiting the BDNF response ([3]; BDNF 5 ng/ml): approximately 5 fold
IC50 [4]: ~55 µM
effect on basal neurite outgrowth [5]: neither the N-Ac-CSRRGEC-NH2 (SEQ ID NO:2) peptide nor its NGF or NT-3 equivalents had any effect on basal neurite outgrowth
inhibition of the neurite outgrowth response to the BAG peptide [2]: can fully inhibit the activity

CCN(CC)CCCCNc1ncc2cc(-c3cc(OC)cc(OC)c3)c(NC(=O)NC(C)(C)C)nc2n1 [PD17304, reference compound]
inhibition of the neurite outgrowth response to the BAG peptide [2]: did not inhibit the response

C[C@@H](N)[C@H]1CC[C@H](C(=O)Nc2ccncc2)CC1 [Y27632, reference compound]
effect on MAG-Fc inhibition of neurite outgrowth [6]: MAG-Fc does not inhibit neurite outgrowth
effect on inhibition of neurite outgrowth by GT1b antibody [7]: effectively abolishes this effect
effect on inhibitory response elicited by p75NTR antibody [8]: does not elicit an inhibitory response

Ac-CSRRGELAASRRGELC-NH2 (cysteine pairing not given here) [BAG]
EC50 [5]: ~0.3 µM
concentration of near maximal neurite outgrowth response [5]: about 600 Nm
promotion of axonal growth compared with established growth promoting agents ([5]; BAG 6 μM, comparators 5 ng/ml): promotes axonal growth by the same extent as maximally active concentrations of NT-R, BDNF and FGF2
lowest concentration that effectively blocks MAG inhibitor activity ([6]; MAG-Fc 25 μg/ml): 30 nM
effect on MAG-Fc inhibition of neurite outgrowth [6]: MAG-Fc failed to inhibit neurite outgrowth
effect on neurite outgrowth in the absence of MAG-Fc [9]: does not have a substantial effect
effect on MAG-Fc inhibition of neurite outgrowth ([9]; MAG-Fc 25 μg/ml, BDNF 5 ng/ml): does effectively block the MAG response
effect on inhibition of neurite outgrowth by GT1b antibody [7]: the antibody's inhibitor effect is effectively eliminated
effect on inhibitory response elicited by p75NTR antibody [8]: effectively blocks the p75^NTR antibody's inhibitory effect
neurite growth in the inhibitory environment at 10 μg/ml and 100 μg/ml ([10]; concentrations of 10 μg/ml and 100 μg/ml, MAG-Fc coating): promotes neurite growth

Ac-SRRGELA-NH2
inhibition of the BDNF response ([3]; BDNF 5 ng/ml, linear peptide up to 125 μM): did not inhibit any of the response
inhibition of the NT-4 response ([4]; NT-4 5 ng/ml, linear peptide up to 125 μM): did not inhibit any of the response
inhibition of neurite outgrowth response stimulated by N-cadherin, FGF2 or a CB1 receptor agonist [11]: did not inhibit any of the response
inhibition of the neurite outgrowth response to the BAG peptide [2]: very little to no effect

Ac-dCdLdEGdRdRdSdAdAdLdEGdRdRdSdC-NHs [riBAG1]
neurite growth in the inhibitory environment (overall / dose response) ([10]; MAG-Fc coating): block MAG inhibitory activity and promote neurite outgrowth
neurite growth in the inhibitory environment at 33 μg/ml ([10]; MAG-Fc coating): does not promote growth

N-Ac-CRGEC-NH2
effect on basal neurite outgrowth [5]: no effect on basal neurite outgrowth

c(dLdEGdRdRdSdLdEGdRdRdS) [hriBAG2]
neurite growth in the inhibitory environment (overall / dose response) ([10]; MAG-Fc coating): block MAG inhibitory activity and promote neurite outgrowth; also recorded: promoted substantial dose-dependent neurite growth
dose at which a neurite growth response can be observed ([10]; inhibitory environment (MAG-Fc coating)): about 10 μg/ml
neurite growth in the inhibitory environment at 33 μg/ml ([10]; MAG-Fc coating): almost double the value seen in the inhibitory environment without the peptidomimetic; also recorded: promoted neurite growth to a substantially greater extent than BDNF, BAG peptide, and the hBAG2 and riBAG1 at any concentration

cyclo(SRRGELSRRGEL) [hBAG2]
neurite growth in the inhibitory environment (overall / dose response) ([10]; MAG-Fc coating): block MAG inhibitory activity and promote neurite outgrowth
neurite growth in the inhibitory environment at 33 μg/ml ([10]; MAG-Fc coating): promotes neurite growth; also recorded: promoted neurite growth to an extent comparable to BAG polypeptide at a concentration of 10 μg/ml
